Assay results taken from ChEMBL document CHEMBL3044887, “The antifungal activity of widdrol and its biotransformation by Colletotrichum gloeosporioides (penz.) Penz. & Sacc. and Botrytis cinerea Pers.: Fr” (2006).
Active and inactive are the calls of the source. No cut-off for these calls is given here.

Legend:
Botrytis cinerea [1] = assay: Antifungal activity against Botryotinia fuckeliana 2100 assessed as inhibition of mycelial growth at 100 ppm measured after 6 days; format: functional
Botrytis cinerea [2] = assay: Antifungal activity against Botryotinia fuckeliana 2100 assessed as inhibition of mycelial growth at 200 ppm measured after 6 days; format: functional; conditions: Botrytis cinerea, 2100, 144 h; read-out: GI
[3] = system: Colletotrichum gloeosporioides; assay: Antifungal activity against Colletotrichum gloeosporioides 20122 assessed as inhibition of mycelial growth at => 100 ppm measured after 24 to 144 hr; format: functional, organism-based

| Compound | growth inhibition (GI) (Botrytis cinerea [1]) | other results |
| --- | --- | --- |
| CC1(C)C2=CC[C@@](C)(O)CC[C@]2(C)CC[C@H]1O | inactive | – |
| CC1(C)CCC[C@@]2(C)CC[C@](C)(O)CC=C12 [WIDDROL] | – | inhibition of growth at 200 ppm (Botrytis cinerea [2]): 70.7%; inhibition of growth at 100 ppm (Botrytis cinerea [1]; Botrytis cinerea, 2100, 144 h, read-out: GI): 60%; growth inhibition (GI) [3]: inactive |
| C[C@@]1(O)CC=C2[C@@](C)(CCC[C@@]2(C)CO)CC1 | inactive | – |
| CC1(C)C(=O)CC[C@@]2(C)CC[C@](C)(O)CC=C12 | inactive | – |
| CC1(C)C2=CC[C@@](C)(O)CC[C@]2(C)CC[C@@H]1O | inactive | – |
| CC1(C)CC[C@@H]2O[C@]13[C@H](O)C[C@@](C)(O)CC[C@]23C | inactive | – |
